In general, IC50 refers to the concentration needed to halve the response being measured.

The structures appear in SMILES notation. Counter-ions that a name gives are not always drawn.

The target in this assay is wild type human HSD17B13 (Homo sapiens (Human), UniProt Q7Z5P4). Kind of assay: HEK_Beta-Est LCMS_IC50_Tekcel, whole-cell HEK-HSD17B13 inhibition assay, estrone production by LCMS. In kind it is cell-based. The conditions noted are these: geometric mean, HEK cells stably expressing wild type human HSD17B13, 25 μM FAC beta-estradiol, read-out: HEK_Beta-Est LCMS_IC50—Tekcel GMean IC50. The procedure: HEK_Beta-Est LCMS_IC50_Tekcel
Sequence of wild type human HSD17B13 (Q7Z5P4 20-300): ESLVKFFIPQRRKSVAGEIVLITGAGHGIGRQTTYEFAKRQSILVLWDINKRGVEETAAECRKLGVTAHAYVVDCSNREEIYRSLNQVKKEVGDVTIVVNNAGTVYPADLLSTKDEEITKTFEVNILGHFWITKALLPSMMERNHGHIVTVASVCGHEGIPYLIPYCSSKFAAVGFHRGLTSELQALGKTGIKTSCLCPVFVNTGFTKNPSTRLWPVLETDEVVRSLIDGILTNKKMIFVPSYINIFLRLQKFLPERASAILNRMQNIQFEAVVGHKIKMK
Inhibition potency of test compounds was determined using a whole-cell HEK-HSD17B13 inhibition assay, utilizing a LCMS readout.
HSD17B13 uses the oxidized form of nicotinamide adenine dinucleotide (NAD+) as a cofactor during metabolism of beta-estradiol (substrate), converting NAD+ to the reduced form (NADH) and beta-estradiol to its product (estrone). Estrone production is quantified by LCMS, and used as a measure of HSD17B13 enzyme activity.
([…]: 5% CO2). […] Growth media was then removed from the cell plates and replaced with 10 μL of 2×FAC test compound, and incubated for 1 hour (with lid) at 37° C. […] The reaction was incubated for 2 hours (with lid) at 37° C. […] Amount of product (estrone) was then quantified by LCMS. Data expressed as product area ratio (PAR) were then normalized to control wells using Activity Base (IDBS). Zero percent effect (ZPE) was defined as PAR generated from uninhibited HSD17B13 (vehicle control).
In the case of `O=C(NC[C@H]1CC[C@H](n2cc3ccc(-c4ncc(C5CC5)s4)cc3n2)CC1)c1cc(F)c(O)c(F)c1` [Example 105, N-({(1r,4r)-4-[6-(5-cyclopropyl-1,3-thiazol-2-yl)-2H-indazol-2-yl]cyclohexyl}methyl)-3,5-difluoro-4-hydroxybenzamide], the IC50 amounted to 370 nM.

As to `O=C(NC[C@H]1CC[C@H](n2cc3ccc(-n4cncn4)cc3n2)CC1)c1cc(F)c(O)c(F)c1F` [Example 165, 2,3,5-trifluoro-4-hydroxy-N-({(1r,4r)-4-[6-(1H-1,2,4-triazol-1-yl)-2H-indazol-2-yl]cyclohexyl}methyl) benzamide], the IC50 came out at 420 nM.

Consider `O=C(NC[C@H]1CC[C@H](c2nc(-c3cnc(C(F)(F)F)cn3)no2)CC1)c1cc(F)c(O)c(F)c1F` [Example 148, 2,3,5-trifluoro-4-hydroxy-N-{[(1r,4r)-4-{3-[5-(trifluoromethyl)pyrazin-2-yl]-1,2,4-oxadiazol-5-yl}cyclohexyl]methyl} benzamide], for which the IC50 was 470 nM.

With `Cc1cnc(-c2ccc3cn([C@H]4CC[C@H](CNC(=O)c5cc(F)c(O)c(F)c5)CC4)nc3c2)s1` [Example 115, 3,5-difluoro-4-hydroxy-N-({(1r,4r)-4-[6-(5-methyl-1,3-thiazol-2-yl)-2H-indazol-2-yl]cyclohexyl}methyl) benzamide], the IC50 was 190 nM.

With `Cn1cc(-c2ccc3cn([C@H]4CC[C@H](CNC(=O)c5cc(F)c(O)c(F)c5)CC4)nc3c2)nn1` [Example 79, 3,5-difluoro-4-hydroxy-N-({(1r,4r)-4-[6-(1-methyl-1H-1,2,3-triazol-4-yl)-2H-indazol-2-yl]cyclohexyl}methyl) benzamide], the IC50 was found to be 370 nM.

As for `O=C(NC[C@H]1CC[C@H](n2cc3ccc(-c4ncc5cc[nH]c5n4)cc3n2)CC1)c1cc(F)c(O)c(F)c1` [Example 97, 3,5-difluoro-4-hydroxy-N-({(1r,4r)-4-[6-(7H-pyrrolo[2,3-d]pyrimidin-2-yl)-2H-indazol-2-yl]cyclohexyl}methyl) benzamide], the half-inhibitory concentration (IC50) is 300 nM.

In the case of `Cn1cc(-c2ccc3nn([C@H]4CC[C@H](CNC(=O)c5cc(F)c(O)c(F)c5)CC4)cc3c2)cn1` [Example 159, 3,5-difluoro-4-hydroxy-N-({(1r,4r)-4-[5-(1-methyl-1H-pyrazol-4-yl)-2H-indazol-2-yl]cyclohexyl}methyl) benzamide, trifluoroacetate salt], the IC50 was found to be 91 nM.

For `Cn1cc(-c2ccc3cn([C@]45CC[C@](CNC(=O)c6cc(F)c(O)c(F)c6)(CC4)CC5)nc3c2)cn1` [Example 204, 3,5-difluoro-4-hydroxy-N-({4-[6-(1-methyl-1H-pyrazol-4-yl)-2H-indazol-2-yl]bicyclo[2.2.2]octan-1-yl}methyl)benzamide], the IC50 amounted to 99 nM.

Regarding `O=C(NC[C@H]1CC[C@H](n2cc3ccc(-n4cc(C(F)(F)F)cn4)cc3n2)CC1)c1cc(F)c(O)c(F)c1F` [Example 11, 2,3,5-Trifluoro-4-hydroxy-N-{[(1r,4r)-4-{6-[4-(trifluoromethyl)-1H-pyrazol-1-yl]-2H-indazol-2-yl}cyclohexyl]methyl}benzamide, trifluoroacetate salt], the IC50 is 240 nM.

In the case of `O=C(NC[C@H]1CC[C@H](c2cn3cc(-c4cnn(C(F)F)c4)ccc3n2)CC1)c1cc(F)c(O)c(F)c1F` [Example 167, N-{[(1r,4r)-4-{6-[1-(difluoromethyl)-1H-pyrazol-4-yl]imidazo [1,2-a]pyridin-2-yl}cyclohexyl]methyl}-2,3,5-trifluoro-4-hydroxy-benzamide, trifluoroacetate salt], the IC50 was found to be 200 nM.

On to `O=C(NC[C@H]1CC[C@H](n2cc3cc(-c4cnn(C(F)F)c4)ccc3n2)CC1)c1cc(F)c(O)c(F)c1F` [Example 161, N-{[(1r,4r)-4-{5-[1-(difluoromethyl)-1H-pyrazol-4-yl]-2H-indazol-2-yl}cyclo-hexyl]methyl}-2,3,5-trifluoro-4-hydroxy-benzamide], for which the IC50 was 180 nM.

`O=C(NC[C@H]1CC[C@H](n2cc3ccc(-c4csc(N5CCOCC5)n4)cc3n2)CC1)c1cc(F)c(O)c(F)c1` [Example 114, 3,5-difluoro-4-hydroxy-N-{[(1r,4r)-4-{6-[2-(morpholin-4-yl)-1,3-thiazol-4-yl]-2H-indazol-2-yl}cyclohexyl]methyl} benzamide]: the IC50 was 170 nM.

Consider `O=C(NC[C@H]1CC[C@H](n2cc3cc(-c4ncccn4)ccc3n2)CC1)c1cc(F)c(O)c(F)c1` [Example 154, 3,5-difluoro-4-hydroxy-N-({(1r,4r)-4-[5-(pyrimidin-2-yl)-2H-indazol-2-yl]cyclohexyl}methyl) benzamide], for which the IC50 came out at 110 nM.

With `Cc1cccc(-c2noc([C@]34CC[C@](CNC(=O)c5cc(F)c(O)c(F)c5)(CC3)CC4)n2)n1` [Example 194, 3,5-difluoro-4-hydroxy-N-({4-[3-(6-methylpyridin-2-yl)-1,2,4-oxadiazol-5-yl]bicyclo[2.2.2]octan-1-yl}methyl) benzamide], the IC50 was determined as 230 nM.

Turning to `O=C(NC[C@H]1CC[C@H](n2cc3ccc(-c4ccn5ncnc5c4)cc3n2)CC1)c1cc(F)c(O)c(F)c1` [Example 119, 3,5-difluoro-4-hydroxy-N-({(1r,4r)-4-[6-([1,2,4]triazolo[1,5-a]pyridin-7-yl)-2H-indazol-2-yl]cyclo-hexyl}methyl) benzamide, trifluoroacetate salt], the half-inhibitory concentration (IC50) was 150 nM.

For `O=C(NC[C@H]1CC[C@H](n2cc3cc(-c4cscn4)ccc3n2)CC1)c1cc(F)c(O)c(F)c1` [Example 155, 3,5-difluoro-4-hydroxy-N-({(1r,4r)-4-[5-(1,3-thiazol-4-yl)-2H-indazol-2-yl]cyclohexyl}methyl) benzamide], the IC50 came out at 120 nM.

For the compound `Cc1ccn(-c2ccc3cn([C@H]4CC[C@H](CNC(=O)c5cc(F)c(O)c(F)c5F)CC4)nc3c2)n1` [Example 162, 2,3,5-trifluoro-4-hydroxy-N-({(1r,4r)-4-[6-(3-methyl-1H-pyrazol-1-yl)-2H-indazol-2-yl]cyclohexyl}methyl) benzamide], the IC50 is 310 nM.

For `O=C(NC[C@H]1CC[C@H](c2nc(-c3cnc(C(F)(F)F)cn3)no2)CC1)c1cc(F)c(O)cc1F` [Example 149, 2,5-difluoro-4-hydroxy-N-{[(1r,4r)-4-{3-[5-(trifluoromethyl)pyrazin-2-yl]-1,2,4-oxadiazol-5-yl}cyclohexyl]methyl} benzamide], the IC50 is 430 nM.

As to `Cn1ncc(-c2ccc3cn([C@H]4CC[C@H](CNC(=O)c5cc(F)c(O)c(F)c5)CC4)nc3c2)n1` [Example 92, 3,5-difluoro-4-hydroxy-N-({(1r,4r)-4-[6-(2-methyl-2H-1,2,3-triazol-4-yl)-2H-indazol-2-yl]cyclohexyl}methyl)benzamide], the IC50 is 130 nM.

Consider `Cc1cccc(-c2ccc3cn([C@H]4CC[C@H](CNC(=O)c5cc(F)c(O)c(F)c5)CC4)nc3c2)n1` [Example 118, 3,5-difluoro-4-hydroxy-N-({(1r,4r)-4-[6-(6-methylpyridin-2-yl)-2H-indazol-2-yl]cyclohexyl}methyl) benzamide, trifluoroacetate salt], for which the IC50 came out at 230 nM.

Regarding `O=C(NC[C@H]1CC[C@H](n2cc3ccc(-c4ncc5c(n4)COC5)cc3n2)CC1)c1cc(F)c(O)c(F)c1` [Example 101, N-({(1r,4r)-4-[6-(5,7-dihydrofuro[3,4-d]pyrimidin-2-yl)-2H-indazol-2-yl]cyclohexyl}methyl)-3,5-difluoro-4-hydroxybenzamide], the IC50 worked out at 140 nM.

For the compound `O=C(NC[C@]12CC[C@@](c3nc(-c4ncc(C(F)(F)F)cn4)no3)(CC1)CC2)c1cc(F)c(O)c(F)c1F` [Example 3, 2,3,5-Trifluoro-4-hydroxy-N-[(4-{3-[5-(trifluoromethyl)pyrimidin-2-yl]-1,2,4-oxadiazol-5-yl}bicyclo[2.2.2]octan-1-yl)methyl]benzamide], the IC50 was 130 nM.

As to `Cc1cc(-c2ccc3cn([C@H]4CC[C@H](CNC(=O)c5cc(F)c(O)c(F)c5)CC4)nc3c2)ncn1` [Example 87, 3,5-difluoro-4-hydroxy-N-({(1r,4r)-4-[6-(6-methylpyrimidin-4-yl)-2H-indazol-2-yl]cyclohexyl}methyl) benzamide], the IC50 was determined as 130 nM.

Consider `O=C(NC[C@H]1CC[C@H](n2cc3cc(OCc4cccc(C(F)(F)F)n4)ncc3n2)CC1)c1cc(F)c(O)c(F)c1` [Example 33, 3,5-difluoro-4-hydroxy-N-{[(1r,4r)-4-(5-{[6-(trifluoromethyl)pyridin-2-yl]methoxy}-2H-pyrazolo[3,4-c]pyridin-2-yl)cyclohexyl]methyl}benzamide], for which the IC50 was 380 nM.

With `N#Cc1cccc(-c2ccc3nn([C@H]4CC[C@H](CNC(=O)c5cc(F)c(O)c(F)c5)CC4)cc3c2)c1` [Example 156, N-({(1r,4r)-4-[5-(3-cyanophenyl)-2H-indazol-2-yl]cyclohexyl}methyl)-3,5-difluoro-4-hydroxybenzamide], the IC50 was determined as 170 nM.

For `COc1ccc(-c2ccc3cn([C@H]4CC[C@H](CNC(=O)c5cc(F)c(O)c(F)c5)CC4)nc3c2)nc1` [Example 99, 3,5-difluoro-4-hydroxy-N-({(1r,4r)-4-[6-(5-methoxy-pyridin-2-yl)-2H-indazol-2-yl]cyclohexyl}methyl) benzamide, trifluoroacetate salt], the IC50 came to 220 nM.
